Laboratory results as given in PMC6025407, “Asperversins A and B, Two Novel Meroterpenoids with an Unusual 5/6/6/6 Ring from the Marine-Derived Fungus Aspergillus versicolor” (Marine Drugs, 2018).
≈ marks a conversion by molar mass, not a printed value. Like-named read-outs stand apart in the source and are kept apart here.

Experiments:
[1] = molecular target: human recombinant AChE (Homo sapiens, UniProt P22303); assay: biochemical; conditions: for inhibition at 100 µM: AChE, read-out: Inhibitory Ratio at 100 μM; for IC50: read-out: IC50 Value against AChE
Description: Briefly, 20 µL AChE (0.05 U/mL) and 20 µL different concentrations of compounds (0.1 M phosphate buffer, pH 8.0) containing 0.1% Triton X-100) were pre-incubated at 37 °C for 30 min, then 160 µL of the assay solution which consisted of a 0.1 M phosphate buffer pH 8.0, with the addition of 600 µM 5,5’-dithio-bis (2-nitrobenzoic acid) and 550 µM acetylthiocholine iodide (ATCh) were added in the 96-well plates. The absorbance value at 425 nm was recorded for 15 min and enzyme activity was calculated from the slope of the obtained linear trend. The reaction rates were compared and the % inhibition due to the presence of tested inhibitors was calculated. Each concentration was analyzed in triplicate, and IC50 values were determined graphically from log concentration inhibition curves (Graphpad Prism 5, GraphPad Software Inc., San Diego, CA, USA).

[2] = in vitro; conditions: human, A549 cells
Description: Four human cancer cell lines (A549, MCF-7, HepG2, and HL-60 cells), together with one noncancerous cell line, the human bronchial epithelial cells Beas-2B, were used in the cytotoxic activity assay. […]
medium (HyClone, Logan, UT, USA), supplemented with 10% fetal bovine serum (HyClone) at 37 °C in a humidified atmosphere with 5% CO 2 . The cell survival assay was performed using the MTT method. Briefly, 100 μ L of a suspension of the adherent cells was seeded into each well of the 96 - well culture plates and allowed to adhere for 12 h before addition of the test compounds. The suspended cells were seeded at an initial density of 1 × 10^5 cells/mL immediately before the addition of the drug. Each tumor cell line was exposed for 48 h in triplicate to the test compounds at concentrations […]
positive controls. After incubation, culture supernatants were removed and exchanged with medium containing 0.5 mg/mL MTT. Then, the cells were incubated for 4 h at 37 °C in darkness , followed by the removal of the medium and adding 100 μ L dimethyl sulfoxide. The absorbance at 570 nm was detected and the data were expressed as the mean percentage of absorbance in treated vs. control cells.

[3] = Cytotoxic assay (MTT); conditions: human
Description: (§1) Four human cancer cell lines (A549, MCF-7, HepG2, and HL-60 cells), together with one noncancerous cell line, the human bronchial epithelial cells Beas-2B, were used in the cytotoxic activity assay. All cells were cultured in DMEM or RPMI- 1640 medium (HyClone, Logan, UT, USA), supplemented with 10% fetal bovine serum (HyClone) at 37 °C in a humidified atmosphere with 5% CO 2 . The cell survival assay was performed using the MTT method. Briefly, 100 μ L of a suspension of the adherent cells was seeded into each well of the 96 - well culture plates and allowed to adhere for 12 h before addition of the test compounds. The suspended cells were seeded at an initial density of 1 × 10^5 cells/mL immediately before the addition of the drug. Each tumor cell line was exposed for 48 h in triplicate to the test compounds at concentrations of 0.0625 , 0.32, 1.6, 8, and 40 μ M, with DDP (cis - platin, Sigma) and paclitaxel as positive controls. After incubation, culture supernatants were removed and exchanged with medium containing 0.5 mg/mL MTT. Then, the cells were incubated for 4 h at 37 °C in darkness , followed by the removal of the medium and adding 100 μ L dimethyl sulfoxide. The absorbance at 570 nm was detected and the data were expressed as the mean percentage of absorbance in treated vs. control cells.

[4] = Cytotoxic assay (MTT), noncancerous cell line; conditions: human, Beas-2B bronchial epithelial cells (noncancerous)
Description: as §1

[5] = test system: Escherichia coli; assay: Antimicrobial (printed 'antifungal') bioassay; type: cell-based
Description: (§2) The tested pathogenic fungi, Staphylococcus aureus (MRSA), methicillin-sensitive Staphylococcus aureus (MSSA), Escherichia coli and Pseudomonas aeruginosa, were provided by Tongji Hospital of Tongji Medical College of Huazhong University of Science and Technology. All samples dissolved in MeOH were tested for antifungal activity in vitro by mycelial growth inhibitory rate method, a Poison Food Technique.
(§3) Potato dextrose agar (PDA) medium was used as the medium for all test fungi.
(§4) The media (100 ml) incorporating test samples were inoculated at the center of agar discs of the test fungi (4 mm diameter). Three replicate plates for each fungus were incubated at 26 °C for all test fungi. Control plates containing media mixed with MeOH (1 ml) were in cluded. After incubation for 24–48 h, the mycelial growth of fungi (mm) in both treated (T) and control (C) Petri dishes was measured diametrically in three different directions (decussation method) until the fungal growth in the control dishes was almost complete. The percentage of growth inhibition ( I) was calculated using the […]
(§5) Table S2. Antifungal Effects of Compounds 1−8 (MIC, μg/ml). fungi MRSA MSSA E. coli P. aeruginosa

[6] = test system: Pseudomonas aeruginosa; assay: Antimicrobial (printed 'antifungal') bioassay; type: cell-based
Description: as §2, §3, §4, §5

[7] = test system: methicillin-resistant Staphylococcus aureus (MRSA); assay: Antimicrobial (printed 'antifungal') bioassay; type: cell-based
Description: as §2, §3, §4, §5

[8] = test system: methicillin-sensitive Staphylococcus aureus (MSSA); assay: Antimicrobial (printed 'antifungal') bioassay; type: cell-based
Description: as §2, §3, §4, §5

[9] = test system: methicillin-resistant Staphylococcus aureus (MRSA); conditions: cited from earlier work

human recombinant AChE, sequence (P22303 32-614): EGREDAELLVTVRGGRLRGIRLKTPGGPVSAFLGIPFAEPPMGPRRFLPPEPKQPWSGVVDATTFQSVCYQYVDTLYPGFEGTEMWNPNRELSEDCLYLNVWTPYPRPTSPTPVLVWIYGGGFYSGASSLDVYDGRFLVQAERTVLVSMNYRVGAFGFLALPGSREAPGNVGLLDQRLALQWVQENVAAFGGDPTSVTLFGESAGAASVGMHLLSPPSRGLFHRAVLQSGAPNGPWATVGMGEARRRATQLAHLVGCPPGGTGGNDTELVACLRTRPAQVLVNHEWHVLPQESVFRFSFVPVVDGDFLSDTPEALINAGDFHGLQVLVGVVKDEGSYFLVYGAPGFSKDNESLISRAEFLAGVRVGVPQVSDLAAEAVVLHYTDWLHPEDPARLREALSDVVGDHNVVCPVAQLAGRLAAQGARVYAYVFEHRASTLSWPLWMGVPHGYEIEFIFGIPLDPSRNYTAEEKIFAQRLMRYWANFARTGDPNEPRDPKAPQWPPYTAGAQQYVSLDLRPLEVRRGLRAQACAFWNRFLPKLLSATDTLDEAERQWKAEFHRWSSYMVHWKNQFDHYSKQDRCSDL

Row | Compound | inhibition at 100 µM [1] [%] | IC50 [1] [µM] | IC50 at 48 h [2] [µM] | IC50 at 48 h ([3]; HL-60 cells) [µM] | IC50 at 48 h ([3]; HepG2 cells) [µM] | IC50 at 48 h ([3]; MCF-7 cells) [µM] | IC50 at 48 h [4] [µM] | MIC ([5]; E. coli, read-out: MIC) [µg/mL] | MIC ([6]; P. aeruginosa, read-out: MIC) [µg/mL] | MIC ([7]; read-out: MIC) [µg/mL] | MIC ([8]; read-out: MIC) [µg/mL] | MIC [5] [µg/mL] | MIC [6] [µg/mL] | MIC [7] [µg/mL] | MIC [8] [µg/mL] | activity against MRSA (in words) [9]
1 | COC(=O)C[C@@H]1OC(C)(C)[C@@H]2[C@H](OC(C)=O)C[C@@]3(C)Oc4cc(C)oc(=O)c4C[C@@H]3[C@@]12C [Compound 1, Asperversin A] | 35.7 | > 40 | > 40 | > 40 | > 40 | > 40 | > 40 | > 100 | > 100 | > 100 | > 100 | – | – | – | – | –
2 | CC(=O)O[C@@H]1C[C@@]2(C)Oc3cc(C)oc(=O)c3C[C@@H]2[C@@]2(C)[C@H](CC(=O)O)OC(C)(C)[C@H]12 [Compound 2, Asperversin B] | 36.2 | > 40 | > 40 | > 40 | > 40 | > 40 | > 40 | > 100 | > 100 | > 100 | > 100 | – | – | – | – | –
3 | C=C(C)[C@@H]1[C@H](OC(C)=O)C[C@@]2(C)Oc3cc(C)oc(=O)c3C[C@@H]2[C@@]1(C)[C@H](CC(=O)OC)OC(C)=O [Compound 3, Asperversin C] | 27.6 | > 40 | > 40 | > 40 | > 40 | > 40 | > 40 | > 100 | > 100 | > 100 | > 100 | – | – | – | – | –
4 | Cc1cc2c(c(=O)o1)C[C@@H]1[C@@]3(C)[C@@H](O)CC(=O)OC(C)(C)[C@@H]3CC[C@@]1(C)O2 [Compound 4, Asperversin D] | 50.2 | > 40 | > 40 | > 40 | > 40 | > 40 | > 40 | > 100 | > 100 | > 100 | > 100 | – | – | – | – | –
5 | CC(=O)OC1CC2(C)Oc3cc(C)oc(=O)c3CC2C2(C)C(O)CC(=O)OC(C)(C)C12 (stereo not drawn) [Compound 5, Asperversin E] | 48.7 | > 40 | > 40 | > 40 | > 40 | > 40 | > 40 | > 100 | > 100 | > 100 | > 100 | – | – | – | – | –
6 | CC(=O)O[C@H]1CC(=O)OC(C)(C)[C@@H]2[C@H](OC(C)=O)C[C@@]3(C)Oc4cc(C)oc(=O)c4C[C@@H]3[C@@]12C [Compound 6, Asperversin F] | 62.9 | > 40 | > 40 | > 40 | > 40 | > 40 | > 40 | > 100 | > 100 | > 100 | > 100 | – | – | – | – | –
7 | CC(=O)OC1CC2(C)Oc3cc(C)oc(=O)c3CC2C2(C)C=CC(=O)C(C)(C)C12 (stereo not drawn) [Compound 7, Asperversin G] | 92.4 | 13.6 | > 40 | > 40 | > 40 | > 40 | > 40 | > 100 | > 100 | > 100 | > 100 | – | – | – | – | –
8 | Cc1cc2c(c(=O)o1)C[C@@H]1[C@@]3(C)[C@@H](O)CC(=O)OC(C)(C)[C@@H]3[C@H](O)C[C@@]1(C)O2 [Compound 8, asperdemin] | 25.3 | > 40 | > 40 | > 40 | > 40 | > 40 | > 40 | > 100 | > 100 | > 100 | > 100 | – | – | – | – | –
9 | CN[C@H](CC(C)C)C(=O)N[C@H]1C(=O)N[C@@H](CC(N)=O)C(=O)N[C@H]2C(=O)N[C@H]3C(=O)N[C@H](C(=O)N[C@H](C(=O)O)c4cc(O)cc(O)c4-c4cc3ccc4O)[C@H](O)c3ccc(c(Cl)c3)Oc3cc2cc(c3O[C@@H]2O[C@H](CO)[C@@H](O)[C@H](O)[C@H]2O[C@H]2C[C@](C)(N)[C@H](O)[C@H](C)O2)Oc2ccc(cc2Cl)[C@H]1O [vancomycin, reference compound] | – | – | – | – | – | – | – | – | – | – | – | 0.5 (≈ 0.345 µM) | 0.8 (≈ 0.552 µM) | 1.2 (≈ 0.828 µM) | 0.5 (≈ 0.345 µM) | –
10 | Apiroaspertrione A | – | – | – | – | – | – | – | – | – | – | – | – | – | – | – | effective activity
